The values below come from US20080161232A1, “C5a Receptor Antagonist” (JERINI AG, priority 2005, published 2008).

Starred links: 1 amine or outer side, 2 acyl side, 3 side chain; linkers in the order of their positions; H or OH if unused. Positions of bridges follow the written chain, without caps; N, C: chain ends. Non-standard residues stand in square brackets, D forms with d. Residues, ends and D or L forms follow the SMILES beside them. Orn(2-imidazolinyl) = N[C@@H](CCCNC1=NCCN1)C(=O)O; X3 = O=C([C@H](CCNC1=NCCN1)N[*:1])[*:2]; Phe(4-F) = N[C@@H](Cc1ccc(F)cc1)C(=O)O; X5 = CCN(CC)CCC[C@H](N[*:1])C(=O)[*:2]; 1Nal = N[C@@H](Cc1cccc2ccccc12)C(=O)O; 2Nal = N[C@@H](Cc1ccc2ccccc2c1)C(=O)O; Bta = N[C@@H](Cc1csc2ccccc12)C(=O)O; d(hLeu) = CC(C)CC[C@@H](N)C(=O)O; 3Pal = N[C@@H](Cc1cccnc1)C(=O)O; Cha = N[C@@H](CC1CCCCC1)C(=O)O; dCha = N[C@H](CC1CCCCC1)C(=O)O; Orn = NCCC[C@H](N)C(=O)O; Aze = O=C(O)[C@@H]1CCN1

One assay deals with T1, human C5aR(CD88) (Homo sapiens, UniProt P21730).
T1 construct: expressed in transfected cells; host or cells: rat basophilic leukemia cells (RBL)
T1 sequence (P21730 1-350): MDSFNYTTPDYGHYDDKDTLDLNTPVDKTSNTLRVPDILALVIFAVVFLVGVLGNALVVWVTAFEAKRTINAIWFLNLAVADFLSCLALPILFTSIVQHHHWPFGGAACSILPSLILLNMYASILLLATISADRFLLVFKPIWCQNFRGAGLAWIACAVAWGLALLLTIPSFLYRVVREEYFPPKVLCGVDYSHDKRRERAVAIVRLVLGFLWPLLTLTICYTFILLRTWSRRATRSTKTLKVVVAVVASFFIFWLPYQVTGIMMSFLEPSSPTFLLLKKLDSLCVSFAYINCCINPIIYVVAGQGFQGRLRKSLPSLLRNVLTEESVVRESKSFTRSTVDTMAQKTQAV
Kind of assay: Determination of the IC50 value in an enzyme release assay (functional assay, antagonistic activity). Format: cell-based. The note with it: antagonistic activity; IC50 group in enzyme release assay, RBL cells expressing human C5aR(CD88); read-out: activity (group).
On to `CCN(CC)CCC[C@H](NC(=O)[C@H](Cc1ccccc1)NC(C)=O)C(=O)N1CCC[C@H]1C(=O)N[C@H](CC1CCCCC1)C(=O)N[C@@H](Cc1c[nH]c2ccccc12)C(=O)N[C@@H](Cc1ccccc1)C(N)=O` [Compound 143, Ac-Phe-Orn(Et2)-Pro-cha-Trp-Phe-NH2] (Ac-F[X5]P[dCha]WF-NH2), for which the IC50 lay within 0.05 to 0.2 µM.

Take `CC(=O)N[C@@H](Cc1ccccc1)C(=O)N[C@@H](CCCNC1=NCCN1)C(=O)N1CC[C@H]1C(=O)N[C@H](CC1CCCCC1)C(=O)N[C@@H](Cc1csc2ccccc12)C(=O)N[C@@H](Cc1ccccc1)C(N)=O` [Compound 224, Ac-Phe-Ffa-Aze-cha-Bta-Phe-NH2] (Ac-F[Orn(2-imidazolinyl)][Aze][dCha][Bta]F-NH2): the IC50 was in the range of 0.02 to 0.05 µM.

With `CC(=O)N[C@@H](Cc1ccccc1)C(=O)N[C@@H](CCCN)C(=O)N1CCC[C@H]1C(=O)N[C@H](CCC(C)C)C(=O)N[C@@H](Cc1ccccc1)C(=O)N[C@@H](Cc1ccccc1)C(N)=O` [Compound 304, Ac-Phe-Orn-Pro-hle-Phe-Phe-NH2] (Ac-F[Orn]P[d(hLeu)]FF-NH2), the IC50 lay within 0.05 to 0.2 µM.

Turning to `CC(=O)N[C@@H](Cc1ccccc1)C(=O)N[C@@H](CCCCN)C(=O)N[C@@H](C)C(=O)N[C@@H](CC1CCCCC1)C(=O)N[C@@H](C)C(=O)N[C@@H](CC(C)C)C(=O)N[C@H](C)C(=O)N[C@@H](Cc1ccc(O)cc1)C(=O)O` [compound 60] (Ac-FKA[Cha]AL[dA]Y-OH), the IC50 fell in the range of 0.2 to 2 µM.

Regarding `CC(=O)N[C@@H](Cc1ccccc1)C(=O)N[C@@H](CCNC1=NCCN1)C(=O)N1CC[C@H]1C(=O)N[C@H](CC1CCCCC1)C(=O)N[C@@H](Cc1csc2ccccc12)C(=O)N[C@@H](Cc1ccccc1)C(N)=O` [Compound 219, Ac-Phe-Fcn-Aze-cha-Bta-Phe-NH2] (Ac-F[X3][Aze][dCha][Bta]F-NH2), the IC50 was in the range of 0.01 to 0.02 µM.

Take `CC(=O)N[C@@H](CO)C(=O)N[C@@H](Cc1ccccc1)C(=O)N[C@@H](CCCN)C(=O)N1CC[C@H]1C(=O)N[C@H](CC1CCCCC1)C(=O)N[C@@H](Cc1csc2ccccc12)C(=O)N[C@@H](Cc1ccccc1)C(N)=O` [Compound 310, Ac-Ser-Phe-Orn-Aze-cha-Bta-Phe-NH2] (Ac-SF[Orn][Aze][dCha][Bta]F-NH2): the IC50 was 0.01 to 0.02 µM.

For the molecule `CC(=O)N[C@@H](Cc1ccccc1)C(=O)N[C@H]1CCCNC(=O)[C@H](Cc2ccc3ccccc3c2)NC(=O)[C@H](Cc2c[nH]c3ccccc23)NC(=O)[C@@H](CC2CCCCC2)NC(=O)[C@@H]2CCCN2C1=O` [Compound 37, Ac-Phe-[Orn-Pro-cha-Trp-2Ni]] (Ac-F[Orn]P[dCha]W[2Nal]; lactam 2-C), the IC50 was 0.05 to 0.2 µM.

Regarding `CC(=O)N[C@@H](Cc1ccccc1)C(=O)N[C@@H](CCCN)C(=O)N1CCC[C@H]1C(=O)N[C@H](CCC(C)C)C(=O)N[C@@H](Cc1cccc2ccccc12)C(=O)N[C@@H](Cc1ccccc1)C(N)=O` [Compound 268, Ac-Phe-Orn-Pro-hle-1Ni-Phe-NH2] (Ac-F[Orn]P[d(hLeu)][1Nal]F-NH2), the IC50 lay within 0.02 to 0.05 µM.

As to `CC(=O)N[C@@H](Cc1ccccc1)C(=O)N[C@H]1CCCNC(=O)[C@H](Cc2ccccc2)NC(=O)[C@H](Cc2ccc(F)cc2)NC(=O)[C@@H](CCC(C)C)NC(=O)[C@@H]2CCCN2C1=O` [Compound 198, Ac-Phe-[Orn-Pro-hle-Pff-Phe]] (Ac-F[Orn]P[d(hLeu)][Phe(4-F)]F; lactam 2-C), the IC50 lay in the range of 0.05 to 0.2 µM.

In the case of `CC(=O)N[C@@H](Cc1ccccc1)C(=O)N[C@@H](Cc1cccnc1)C(=O)N1CCC[C@H]1C(=O)N[C@H](CC1CCCCC1)C(=O)N[C@@H](Cc1csc2ccccc12)C(=O)N[C@@H](Cc1ccccc1)C(N)=O` [Compound 124, Ac-Phe-Mpa-Pro-cha-Bta-Phe-NH2] (Ac-F[3Pal]P[dCha][Bta]F-NH2), the IC50 lay within 0.05 to 0.2 µM.

The assay is the same for the next values; noted with them: functional assay of example 11; noteworthy = IC50 less than 200 nM.
In the case of `CC(=O)N[C@@H](Cc1ccccc1)C(=O)N[C@H]1CCCNC(=O)[C@H](Cc2ccc3ccccc3c2)NC(=O)[C@H](Cc2c[nH]c3ccccc23)NC(=O)[C@@H](CC2CCCCC2)NC(=O)[C@@H]2CCCN2C1=O` [Compound 37, Ac-Phe-[Orn-Pro-cha-Trp-2Ni]] (Ac-F[Orn]P[dCha]W[2Nal]; lactam 2-C), the “inhibitory activity (in words)” value is reported as “without significant loss of activity”.

Still in this assay, the particulars now being: functional assay of example 11; noteworthy = IC50 less than 200 nM; listed as Ac-Phe-[Orn-Pro-cha-Trp-2Ni].
With `CC(=O)N[C@@H](Cc1ccccc1)C(=O)N[C@H]1CCCNC(=O)[C@H](Cc2ccc3ccccc3c2)NC(=O)[C@H](Cc2c[nH]c3ccccc23)NC(=O)[C@@H](CC2CCCCC2)NC(=O)[C@@H]2CCCN2C1=O` [Compound 37, Ac-Phe-[Orn-Pro-cha-Trp-2Ni]] (Ac-F[Orn]P[dCha]W[2Nal]; lactam 2-C), the “inhibitory activity (in words)” value is reported as “noteworthy inhibitory activity”.
